# Assay results published in US7422846B2, “Natural ligand for orphan G protein coupled receptor GPR86 and methods of use” (Euroscreen S.A, priority 2001, dated 2008).
# Key:
# Type in all cases: cell-based
# CHO-K1 control cells = test: Erk phosphorylation in CHO-K1 control cells transfected with empty pEFIN5 vector; conditions: 1 μM; 5 min, 20 min or 1 h
# [1] = target: T1, GPR86 (P2Y13) human receptor (Homo sapiens, UniProt Q9BPV8, T179M); test: Western blot of phosphorylated Erk1 and Erk2 in GPR86-transfected CHO-K1 cells; design: expressed in transfected cells; conditions: for Erk phosphorylation / time of stimulation giving maximal Erk phosphorylation response: 1 μM; for concentration at which a significant effect on Erk phosphorylation was already observed / concentration giving maximal effect on Erk phosphorylation: 5 min stimulation; for concentration giving maximal effect on Erk phosphorylation: 1 nM to 10 μM tested
# T1 sequence (Q9BPV8 22-354 T179M): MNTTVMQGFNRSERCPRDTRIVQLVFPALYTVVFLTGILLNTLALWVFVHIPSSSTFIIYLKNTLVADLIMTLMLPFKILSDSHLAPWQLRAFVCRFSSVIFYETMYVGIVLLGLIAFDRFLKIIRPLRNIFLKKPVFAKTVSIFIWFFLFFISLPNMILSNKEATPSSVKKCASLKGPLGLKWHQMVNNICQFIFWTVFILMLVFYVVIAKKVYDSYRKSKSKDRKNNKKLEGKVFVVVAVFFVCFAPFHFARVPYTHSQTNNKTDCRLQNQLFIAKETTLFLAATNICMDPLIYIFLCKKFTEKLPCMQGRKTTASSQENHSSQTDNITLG
# Method: To investigate changes in the activation status of the MAP kinases Erk1 and Erk2 upon stimulation of the human GPR86 receptor, whole CHO-K1 transfected cell extracts were analysed by Western blotting using a specific antibody for the dually phosphorylated kinases (at Thr^202 and Tyr^204), which are the active forms of Erk. Western Blot Analysis of phosphorylated Erk1 and Erk2 proteins.
# GPR86-transfected CHO-K1 cells were seeded at 1.5×10^6 cells/dish. After 24 h, the cells were serum-starved for 2 h in KRH buffer. After stimulation with the agonist, the cells were scraped in 1 ml of PBS pH 7.3 (137 mM NaCl, 2.7 mM KCl, 4.3 mM Na2HPO4.7H2O and 1.4 mM KH2PO4). The cells were recovered by centrifugation and lysed in 150 μl of Laemmli buffer (10% (w/v) glycerol, 5% (v/v) mercaptoethanol, 2.3% (w/v) SDS, 62.5 mM Tris-HCl pH 6.8). The protein concentration was determined using the method of Minamide and Bamburg (27). The same amount of protein for each condition was electrophoresed in a 12% SDS-polyacrylamide gel. Proteins were then transferred overnight at 60 V and 4° C. onto a nitrocellulose membrane using 20 mM Tris, 154 mM glycine, 20% (v/v) methanol as a transfer buffer. Immunodetection was achieved using the enhanced chemiluminescence Western blotting detection system (ECL, Amersham Phammacia Biotech) using a biotinylated-secondary mouse antibody ( 1/25,000). The monoclonal antibody specific for the dually phosphorylated forms of Erk1 and Erk2 (at Thr^202 and Tyr^204) was used at 1/1000-dilution.
# In CHO-K1 cells, phosphorylated Erk1 and Erk2 had the predicted molecular mass of 44 and 42 kDa, respectively. […] GPR86-transfected CHO-K1 cells were stimulated during different times or with various concentrations of ADP and 2MeSADP or water (CONT). The effect of 100 ng/ml pertussis toxin (PTx) has been tested at 5 and 30 min in the presence of 1 μM ADP or 2MeSADP. Blotting and immunodetection were achieved as described using the enhanced chemiluminescence Western blotting detection system (ECL, Amersham Pharmacia Biotech).
# [2] = target: T1, GPR86 (P2Y13) human receptor; test: cAMP accumulation in CHO-K1 cells expressing GPR86 in the presence of forskolin; design: expressed in transfected cells; host or cells: 1321N1 astrocytoma clone AG32 (stably expressing Gα16 from pERAEQ2), G418-selected; conditions: forskolin 4 μM
# Method: Secondary messenger assays, amenable to high throughput screening analysis, are performed including but not limited to the measurement of intracellular levels of cAMP, intracellular inositol phosphate, intracellular diacylglycerol concentrations, arachinoid acid concentration or MAP kinase or tyrosine kinase activity (as decribed above). For example, the GPR86 activity, as measured in a cyclic AMP assay, is quantified by a radioimmunoassay as previously described (26). Results are compared to the baseline level of GPR86 activity obtained from recombinant cells according to the invention in the presence of ADP but in the absence of added modulator compound. Wells showing at least 2 fold, preferably 5 fold, more preferably 10 fold and most preferably a 100 fold or more increase or decrease in GPR86 activity as compared to the level of activity in the absence of modulator, are selected for further analysis.
# The potential effect of nucleotides was tested on the cAMP pathway in CHO-K1 cells expressing the human GPR86 receptor. […] CHO-K1 transfected cells were incubated in the presence of various concentrations of ADP and 4 μM forskolin for 10 min. The data represent the mean±S.D. of triplicate experimental points obtained in one representative experiment of three and 2MeSADP in the presence of forskolin 4 μM. […] CHO-K1 transfected cells were incubated in the presence of various concentrations of ADP an 4 μM forskolin for 10 minutes. The data represent the mean+/−S.D. of triplicate experimental points obtained in one representative experiment of three. CHO-K1 transfected cells were pre-incubated with or without 100 ng/ml pertussis toxin for 18 h and then incubated in the presence of ADP (100 nM and 100 μM) or water (CONT) and 4 μM forskolin for 10 min. The data represent the mean±S.D. of triplicate experimental points obtained in one representative experiment of two. The biphasic effect of ADP on adenylyl cyclase has been reproduced in 1321N1 cells transfected with the human GPR86 receptor.
SMILES,Erk1 or Erk2 phosphorylation (CHO-K1 control cells),Erk phosphorylation [1],time of stimulation giving maximal Erk phosphorylation response [1] [min],concentration at which a significant effect on Erk phosphorylation was already observed [1] [nM],concentration giving maximal effect on Erk phosphorylation [1] [µM],effect on cAMP level at low concentrations [2],effect on adenylyl cyclase / cAMP at high concentration ([2]; 10 μM),"effect on cAMP level after pertussis toxin pretreatment ([2]; ADP 100 nM and 100 μM, 18 h pretreatment with 100 ng/ml pertussis toxin)",maximal inhibition percentage of cAMP ([2]; at 30 nM) [%],"IC50 ([2]; 10 min, mean±S.D. of three independent experiments, read-out: IC50, inhibition of cAMP level) [nM]"
"CSc1nc(N)c2ncn([C@@H]3O[C@H](COP(=O)(O)OP(=O)(O)O)[C@@H](O)[C@H]3O)c2n1 [2MeSADP, 2-methylthio-ADP]",not observed,strong phosphorylation of Erk2,5,10,1,Significant inhibitions of the cAMP level,,,,
Nc1ncnc2c1ncn2[C@@H]1O[C@H](COP(=O)(O)OP(=O)(O)O)[C@@H](O)[C@H]1O [ADP],not observed,strong phosphorylation of Erk2,5,10,1,Significant inhibitions of the cAMP level,small increase,significant increases of the cAMP level,52±7,1.5 ± 0.6
